# From patent publication US7407745B1, “Method for screening anticancer agent” (Chugai Seiyaku Kabushiki Kaisha, priority 1999, dated 2008)
# Columns and labels:
# [1] = system: Sp1 binding sequence in the p21/WAF1/Cip1 promoter; experiment: Gel shift assay (EMSA) with nuclear extracts of TSA-treated and untreated MG63 cells; design: species or system human; conditions: 500 ng/ml TSA for 24 hours vs untreated
# Method: First, MG63 cells were incubated at 37° C. in a humidified atmosphere of 5% CO2 using DMEM medium (GIBCO BRL) containing 10% fetal calf serum (GIBCO BRL). Nuclear extracts of these cells were prepared from both TSA-treated and untreated cells, according to the method of Dignam et al. (Dignam, J. D. et al., (1983) Nucleic Acids Res. 11:1475-1489). First, cells cultured in a dish (100 mm) were incubated for 24 hours with 500 ng/ml TSA (Wako). This was then washed twice with cold PBS containing 0.5 mM 4-(2-aminoethyl)benzenesulfonyl fluoride HCl (p-ABSF) (Wako), the cells were scraped from the plate, and suspended in 10 mM Hepes/KOH buffer (pH7.9) containing 10 mM KCl, 1.5 mM MgCl2, 0.5 mM DTT, 5 mM NaF, 5 mM NaVO4, and 0.5 mM p-ABSF. After placing on ice for 10 minutes, the cells were disrupted using a Dounce homogenizer. […]
# Next, based on the TSA-dependent promoter sequence (5′-CGGGTCCCGCCTCCTT-3′/SEQ ID NO: 1) located −87 to −72 bp from the transcription start site of the p21/WAF1/Cip1 gene, oligonucleotides (5′-[…]-3′/SEQ ID NO: 2, and 5′-[…]-3′/SEQ ID NO: 3) were synthesized. […] The reaction solution was resolved by electrophoresis on a 6% acrylamide gel and the proteins that bind to the p21/WAF1/Cip1 probe were detected using BAS 2000 (Fujix).
# GAL4-Sp3 = experiment: Reporter assay using the GAL4 binding sequence (pG5-luc), GAL4-Sp3, MG63 cells; assay type: cell-based, human; conditions: GAL4-Sp3 (full-length Sp3, amino acids 1-653), TSA 500 ng/ml, 24 hours
# Description: This yielded pM-Sp1, pM-Sp3, pM-DNSp1, and pM-DNSp3, respectively. Each of the Sp1 and Sp3 genes was amplified by PCR. Specifically, pM-Sp1 production employed Sp1-S (5′-acaggtgagcttga-3′/SEQ ID NO: 4) and Sp1-AS (5′-tcagaagccattgcc-3′/SEQ ID NO: 5) as primers and used pPacSp1 as template for amplification (Kadonaga, J. T. et al., (1987) Cell 51:1079-1090). pM-DNSp1 production employed DNSp1-S (5′-[…]-3′/SEQ ID NO: 6) and DNSp1-AS (5′-gaagcatgcacctgc-3′/SEQ ID NO: 7) as primers and used pM-Sp1 as template for amplification (Kadonaga, J. T. et al., (1987) Cell 51: 1079-1090). pM-Sp3 production employed Sp3-18F (5′-[…]-3′/SEQ ID NO: 8) and Sp3-2R (5′-[…]-3′/SEQ ID NO: 9) as primers and used Marathon-Ready cDNA (Human Fetal Liver) (Clontech, Cat. #7403-1) as template for amplification (Chris, K. et al., (1992) J. Biol. Chem. 12: 4251-4261). pM-DNSp3 production employed Sp3-11F (5′-[…]-3′/SEQ ID NO: 10) and Sp3-2R (SEQ ID NO: 9) as primers and used pM-Sp3 as template for amplification (Chris, K. et al., (1992) J. Biol. Chem. 12: 4251-4261). All PCRs were carried out by performing 30 cycles of 94° C. for 1 minute, 55° C. for 30 seconds, and 72° C. for 30 seconds. The resulting PCR amplified product was inserted into a pM vector and the nucleotide sequence was confirmed using a DNA sequencer, ABI PRISM 355 (Applied Bio System). […]
# p21/WAF1/Cip1 promoter = experiment: Luciferase reporter assay of p21/WAF1/Cip1 promoter (pWWP, pWPdel-BstXI) with dominant negative Sp3, MG63 cells; assay type: cell-based, human; conditions: pWWP and pWPdel-BstXI reporters, forced expression of DNSp3 (pCMV-DNSp3), TSA 500 ng/ml
# [2] = system: GAL4-Sp3 deletion mutant proteins; experiment: Reporter assay using the GAL4 binding sequence (pG5-luc), GAL4-Sp3 deletion mutants, MG63 cells; assay type: cell-based, human; conditions: TSA 500 ng/ml, 24 hours
# Description: This yielded pM-Sp1, pM-Sp3, pM-DNSp1, and pM-DNSp3, respectively. Each of the Sp1 and Sp3 genes was amplified by PCR. Specifically, pM-Sp1 production employed Sp1-S (5′-acaggtgagcttga-3′/SEQ ID NO: 4) and Sp1-AS (5′-tcagaagccattgcc-3′/SEQ ID NO: 5) as primers and used pPacSp1 as template for amplification (Kadonaga, J. T. et al., (1987) Cell 51:1079-1090). pM-DNSp1 production employed DNSp1-S (5′-[…]-3′/SEQ ID NO: 6) and DNSp1-AS (5′-gaagcatgcacctgc-3′/SEQ ID NO: 7) as primers and used pM-Sp1 as template for amplification (Kadonaga, J. T. et al., (1987) Cell 51: 1079-1090). pM-Sp3 production employed Sp3-18F (5′-[…]-3′/SEQ ID NO: 8) and Sp3-2R (5′-[…]-3′/SEQ ID NO: 9) as primers and used Marathon-Ready cDNA (Human Fetal Liver) (Clontech, Cat. #7403-1) as template for amplification (Chris, K. et al., (1992) J. Biol. Chem. 12: 4251-4261). pM-DNSp3 production employed Sp3-11F (5′-[…]-3′/SEQ ID NO: 10) and Sp3-2R (SEQ ID NO: 9) as primers and used pM-Sp3 as template for amplification (Chris, K. et al., (1992) J. Biol. Chem. 12: 4251-4261). All PCRs were carried out by performing 30 cycles of 94° C. for 1 minute, 55° C. for 30 seconds, and 72° C. for 30 seconds. The resulting PCR amplified product was inserted into a pM vector and the nucleotide sequence was confirmed using a DNA sequencer, ABI PRISM 355 (Applied Bio System). As a control for the transfection test, pM that only expresses the GAL4 DNA binding domain was employed. The reporter plasmid (pG5-luc) used to indicate the dependence of transcriptional activation, on GAL4 was pGL3-Basic Vector (Promega), which carried the 5×GAL4 binding sequence, E1B minimum promoter, and TATA sequence, upstream of the luciferase gene.
# The expression vector described above encoding various Sp1 or Sp3 GAL4 fusion proteins and the abovementioned vector carrying a luciferase reporter gene downstream of the consensus 5×GAL4 binding sequence were cotransfected into MG63 cells using SuperFect following the method by QIAGEN. Namely, cells were seeded at a density of 0.8×10^5 cells/well in a 12-well plate. After 24 hours, a pre-mixed reaction solution containing 0.5 μg of reporter plasmid, 2.5 μg of expression vector, and SuperFect were added to the MG63 cells and the mixture was reacted for 2 hours. Subsequently, the cells were cultured for 24 hours under normal culture conditions, cultured for another 24 hours with or without (control) 500 ng/ml of TSA, and then, the cells were lysed. Using luciferase substrate (Promega), luciferase activity of the cell lysates was measured using LB-96P (Berthold). The measured values were normalized and were expressed as activity per amount of protein. Transcriptional induction due to TSA treatment was calculated as a ratio with respect to the TSA-untreated control value (activation amplification by TSA).
# Next, reporter assay was performed using various Sp3 deletion mutants fused to the GAL4 DNA binding domain in order to identify the TSA responsive region of Sp3. First, pM-Sp3 (1-398), pM-Sp3 (81-398), pM-Sp3 (161-398), pM-Sp3 (241-398), pM-Sp3 (1-80), pM-Sp3 (1-160), pM-Sp3 (1-240), and pM-Sp3 (1-320) were prepared. They respectively carry regions corresponding to the indicated amino acid numbers. […]
# As a control for the transfection test, pM expressing only the GAL4 DNA binding domain was used. […] Transfection using these genes followed the same method as described above, and the occurrence of transcriptional induction due to TSA treatment in these mutants was monitored.
# [3] = system: consensus Sp1 binding sequence; experiment: Luciferase reporter assay of 3xSp1 binding sequence (Sp1-luc, mtSp1-luc) with dominant negative Sp3, MG63 cells; assay type: cell-based, human
# [4] = system: all-trans-retinoic acid resistant acute promyelocytic leukemia; conditions: in combination with all-trans retinoic acid; cited from earlier work
molecule,measurement,setting,value
"CC(/C=C/C(=O)NO)=C\[C@@H](C)C(=O)c1ccc(N(C)C)cc1 [TSA, Trichostatin A]",amount of DNA bound by Sp1 and Sp3,[1],a difference in the amount of DNA bound by Sp1 and Sp3 due to the presence or absence of TSA treatment could not be observed
same,transcriptional induction of the luciferase gene by TSA (ratio to TSA-untreated control),GAL4-Sp3,strong transcriptional induction
same,transcriptional induction of p21/WAF1/Cip1 by TSA,p21/WAF1/Cip1 promoter,remarkably repressed by DNSp3
same,TSA dependent transcriptional induction,[2]; GAL4-DNSp3 (amino acids 399-653),no longer showed TSA dependent transcriptional induction
same,TSA dependent transcriptional induction,[2]; GAL4-Sp3 (1-80),induction due to TSA treatment disappeared
same,TSA dependent transcriptional induction,[2]; GAL4-Sp3 (1-398),stronger than with GAL4-Sp3
same,TSA dependent transcriptional induction,[2]; GAL4-Sp3 (81-160) alone,almost no activity
same,TSA dependent transcriptional induction,[2]; GAL4-Sp3 (241-398),induction due to TSA treatment disappeared
same,TSA dependent transcriptional induction driven by the consensus Sp1 binding sequence,"[3]; Sp1-luc reporter, forced expression of DNSp3, TSA 500 ng/ml",marked repression
same,transcriptional induction by TSA,"[3]; mtSp1-luc reporter (mutated Sp1 binding sequence), TSA 500 ng/ml",did not take place
sodium phenylbutyrate,remission of leukemia,[4],complete remission
